Consider five molecules from PubChem BioAssay (NCI).

Test systems include OVCAR-8 ovarian; HOP-92 NSCLC; NCI/ADR-RES ovarian; UO-31 renal; SF-268 CNS; OVCAR-3 ovarian; CCRF-CEM leukemia; RPMI-8226 leukemia; NCI-H522 lung; NCI-H23 lung.
Common to all, as to assay: inhibition of tumour cell growth, NCI panel, 48 h

The structures appear in SMILES notation. Several values for one entry are separate records, joined by “and”; a condition that tells them apart may be missing. Equal entries are not always repeated.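 Method: 48-hour compound exposure of cells in 96-well plates, five concentrations, linear interpolation of endpoints. The concentration for 50% growth inhibition is given as GI50. At the TGI there is no net growth.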

With `CC(=O)OC[C@]12CC[C@@H](C(=O)CBr)[C@@H]1[C@H]1CC[C@@H]3[C@@]4(C)CCCNC(C)(C)[C@@H]4CC[C@@]3(C)[C@]1(C)CC2`, the GI50 with OVCAR-8 ovarian was 4.1 µM; in the assay on HOP-92 NSCLC, 1.6 µM; in the assay on NCI/ADR-RES ovarian it was 4.89 µM; in the assay on UO-31 renal it was 1.71 µM; in the assay on SF-268 CNS it was 5.98 µM; with OVCAR-3 ovarian, 1.93 µM. The GI50 was 1.06 µM with CCRF-CEM leukemia, 2.36 µM with RPMI-8226 leukemia, 2.06 µM in the assay with NCI-H522 lung and 7.01 µM in the assay on NCI-H23 lung. Also, the TGI was determined as 23.8 µM in the assay on OVCAR-8 ovarian; 3.7 µM with HOP-92 NSCLC; 31.2 µM with NCI/ADR-RES ovarian; 4.04 µM with UO-31 renal; 23.9 µM with SF-268 CNS; 3.85 µM in the assay on OVCAR-3 ovarian. For the same molecule, the TGI with CCRF-CEM leukemia turned out to be 3.29 µM; in the assay with RPMI-8226 leukemia it was 6.69 µM; in the assay with NCI-H522 lung it was 4.6 µM; in the assay with NCI-H23 lung, 23.5 µM.
Consider `COc1cc(NC(C)CCCN)c2ncccc2c1` (stereo unspecified), for which the TGI is more than 100 µM with OVCAR-8 ovarian; more than 100 µM in the assay on HOP-92 NSCLC; more than 100 µM in the assay with NCI/ADR-RES ovarian; 57.8 µM and > 100 µM in the assay with UO-31 renal; more than 100 µM in the assay on SF-268 CNS; 84.2 µM and > 100 µM in the assay with OVCAR-3 ovarian. Moreover, the TGI in the assay on CCRF-CEM leukemia, in the assay with RPMI-8226 leukemia, in the assay on NCI-H522 lung and in the assay with NCI-H23 lung was more than 100 µM in each case. In addition, the GI50 with HOP-92 NSCLC is 27.2 µM and 62.6 µM; with UO-31 renal it was 15.2 µM and 42.9 µM.
In the case of `O=C(O)C1OC1(c1cccc(Cl)c1)c1ccccc1Cl` (stereo unspecified), the TGI in the assay with OVCAR-8 ovarian was more than 100 µM; in the assay with HOP-92 NSCLC it was 94.4 µM; in the assay on NCI/ADR-RES ovarian, 47.3 µM; with UO-31 renal, 58.5 µM; with SF-268 CNS, 47.8 µM; with OVCAR-3 ovarian it was 46.1 µM. Besides, the TGI came to 53.3 µM in the assay on CCRF-CEM leukemia, 94.8 µM with RPMI-8226 leukemia, 65 µM with NCI-H522 lung and 54.6 µM in the assay with NCI-H23 lung.
Turning to `COc1ccc2c(c1)nnn1c3ncccc3c(N=O)c21`, the GI50 in the assay on OVCAR-8 ovarian is 0.389 µM and 0.517 µM; in the assay on HOP-92 NSCLC it was 0.0424 µM and 0.117 µM; with NCI/ADR-RES ovarian it was 1.42 µM and 1.28 µM; with UO-31 renal it was 0.0757 µM and 0.347 µM; in the assay on SF-268 CNS, 0.465 µM and 1.73 µM; in the assay with OVCAR-3 ovarian it was 1.11 µM and 2.41 µM. The GI50 was 0.0409 µM in the assay with CCRF-CEM leukemia; 0.261 µM and 1.08 µM with RPMI-8226 leukemia; 1.25 µM in the assay on NCI-H522 lung; 5.17 µM and 1.84 µM with NCI-H23 lung. Besides, the TGI in the assay on OVCAR-8 ovarian is 21.4 µM and 3.73 µM; with NCI/ADR-RES ovarian, 10.6 µM and 12.6 µM; with UO-31 renal, 0.732 µM and 4.64 µM; in the assay on SF-268 CNS, 3.56 µM and 8.25 µM; with OVCAR-3 ovarian it was 5.18 µM and 7.68 µM; with CCRF-CEM leukemia, more than 100 µM. Also, the TGI in the assay on RPMI-8226 leukemia is 1.44 µM and 7.64 µM; in the assay on NCI-H522 lung, 6.49 µM; with NCI-H23 lung, 13.5 µM and 6.43 µM.
As for `COC(=O)c1ccccc1OCc1cc(=O)oc2ccc(C)cc12`, the TGI was more than 100 µM with OVCAR-8 ovarian; more than 74.7 µM with HOP-92 NSCLC; more than 100 µM with NCI/ADR-RES ovarian; more than 100 µM in the assay on UO-31 renal; more than 82.7 µM in the assay with SF-268 CNS; more than 100 µM in the assay with OVCAR-3 ovarian. For the same molecule, the TGI is more than 100 µM in the assay with CCRF-CEM leukemia, more than 100 µM in the assay on RPMI-8226 leukemia, 48.6 µM in the assay with NCI-H522 lung and more than 100 µM in the assay on NCI-H23 lung.
